Read-outs that look alike come from different tables or passages of the source.
Experiments:
[1] = target: T1, human A2b receptor subtype (Homo sapiens, UniProt P29275); experiment: Adenosine 2b receptor subtype competition radioligand binding, [3H]DPCPX, HEK293 membranes
T1 construct: purchased Receptor Biology (Beltsville, Md.) RB-HA2b; host or cells: HEK-293, stably expressing
T1 sequence (P29275 1-332): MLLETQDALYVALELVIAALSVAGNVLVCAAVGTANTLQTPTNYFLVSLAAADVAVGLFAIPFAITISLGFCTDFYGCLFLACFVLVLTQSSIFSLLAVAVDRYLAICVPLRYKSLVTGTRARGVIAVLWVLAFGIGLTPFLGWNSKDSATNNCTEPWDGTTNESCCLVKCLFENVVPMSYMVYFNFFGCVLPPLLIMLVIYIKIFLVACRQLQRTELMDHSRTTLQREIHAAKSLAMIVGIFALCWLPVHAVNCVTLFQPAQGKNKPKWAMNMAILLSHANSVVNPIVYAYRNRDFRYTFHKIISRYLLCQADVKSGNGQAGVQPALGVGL

[2] = target: T2, human A3 receptor subtype (Homo sapiens, UniProt P0DMS8); experiment: Adenosine 3 receptor competition radioligand binding, [125I]AB-MECA, HEK293 membranes
T2 construct: purchased Receptor Biology (Beltsville, Md.) RB-HA3; host or cells: HEK-293, stably expressing
T2 sequence (P0DMS8 1-318): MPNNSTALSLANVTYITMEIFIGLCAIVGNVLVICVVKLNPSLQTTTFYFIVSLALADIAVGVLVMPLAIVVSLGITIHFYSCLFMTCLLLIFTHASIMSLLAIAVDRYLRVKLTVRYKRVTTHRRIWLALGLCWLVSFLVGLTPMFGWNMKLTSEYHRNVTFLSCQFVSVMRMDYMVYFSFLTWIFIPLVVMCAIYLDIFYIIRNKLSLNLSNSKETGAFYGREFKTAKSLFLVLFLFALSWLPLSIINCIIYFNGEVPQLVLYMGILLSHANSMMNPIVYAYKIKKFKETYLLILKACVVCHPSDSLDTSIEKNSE

[3] = target: T3, human A2a receptor subtype (Homo sapiens, UniProt P29274); experiment: Adenosine 2a receptor subtype competition radioligand binding, [3H]CGS-21680, HEK293 membranes
T3 construct: purchased Receptor Biology (Beltsville, Md.) RB-HA2a; host or cells: HEK-293, stably expressing
T3 sequence (P29274 whole entry): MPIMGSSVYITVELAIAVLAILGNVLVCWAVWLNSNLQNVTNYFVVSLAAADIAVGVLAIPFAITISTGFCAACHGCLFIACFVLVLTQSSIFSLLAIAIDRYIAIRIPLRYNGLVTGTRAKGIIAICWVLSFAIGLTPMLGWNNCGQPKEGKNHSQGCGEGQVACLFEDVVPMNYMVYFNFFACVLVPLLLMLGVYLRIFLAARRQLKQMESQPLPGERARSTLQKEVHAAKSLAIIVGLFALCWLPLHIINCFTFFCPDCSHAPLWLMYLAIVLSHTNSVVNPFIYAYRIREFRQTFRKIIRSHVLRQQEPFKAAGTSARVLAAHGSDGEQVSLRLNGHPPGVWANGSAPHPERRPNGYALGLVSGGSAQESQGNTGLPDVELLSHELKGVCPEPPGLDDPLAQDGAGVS

[4] = target: T4, human A1 receptor subtype (Homo sapiens, UniProt P30542); conditions: for Ki: read-out: A1 Binding Ki, Tables 7-13, deazapurine analogues
T4 sequence (P30542 1-326): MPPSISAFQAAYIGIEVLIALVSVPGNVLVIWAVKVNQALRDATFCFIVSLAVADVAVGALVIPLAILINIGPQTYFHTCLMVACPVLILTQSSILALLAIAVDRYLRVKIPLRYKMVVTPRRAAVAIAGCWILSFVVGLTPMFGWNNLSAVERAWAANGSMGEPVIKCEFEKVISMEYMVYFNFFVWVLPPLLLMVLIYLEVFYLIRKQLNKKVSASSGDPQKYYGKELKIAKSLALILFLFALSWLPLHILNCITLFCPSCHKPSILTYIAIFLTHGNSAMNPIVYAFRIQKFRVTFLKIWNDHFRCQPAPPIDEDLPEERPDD

[5] = target: T4, human A1 receptor subtype; experiment: biochemical
PDE4 (Human) = experiment: PDE4 inhibition; format: biochemical
hA3R = target: T5, hA3R (Homo sapiens, UniProt P0DMS8); experiment: Displacement binding of [3H]CPX, yeast membranes expressing human A3 receptor; conditions: read-out: IC50 [nM] hA3R, 0.4 nM [3H]CPX
T5 sequence (P0DMS8 1-318): T2 sequence (P0DMS8 1-318)

SMILES | Ki ([3]; Table 6, read-out: Ki − A2A) | Ki ([1]; Table 6, read-out: Ki − A2B) | Ki [5] | other results
Cc1[nH]c2nc(-c3ccccc3)nc(N[C@H]3CC[C@H](O)CC3)c2c1C [Compound 1304] | – | – | – | Ki ([1]; Table 14, read-out: Binding Ki (nM) A2b): 138 nM; Ki ([2]; Table 14, read-out: Binding Ki (nM) A3): 21.5 nM
CNC(=O)NCCCNc1nc(-c2ccccc2)nc2[nH]c(C)c(C)c12 [Compound 1310] | – | – | – | A2a, value printed as % in Ki column ([3]; Table 14): 76%
O[C@H]1CC[C@H](Nc2nc(-c3ccncc3)nc3[nH]ccc23)CC1 [Compound 1321] | – | – | – | A3, % activity @ 10 μM ([2]; Table 14, 10 μM): 54%^8
Cc1[nH]c2nc(-c3ccccc3)nc(NC3CCC(OC(=O)c4ccccc4)CC3)c2c1C (stereo not drawn) [Compound 611] | – | – | – | Ki [4]: 0.786 µM
NC(=O)[C@H]1CCCN1c1nc(-c2ccccc2)nc2[nH]ncc12 | 0.243 µM | 1480 nM | 0.0767 µM | –
O[C@H]1CC[C@H](Nc2nc(-c3ccccc3)nc3[nH]nnc23)CC1 | 1.53 µM | 4210 nM | 0.0524 µM | –
CC(=O)NCCNc1nc(-c2ccccc2)nc2[nH]ncc12 | 0.0495 µM | 32.1 nM | 0.0114 µM | –
Cc1[nH]c2nc(-c3ccccc3)nc(NC3CCC(OC(=O)c4ccccc4)CC3)c2c1C (stereo not drawn) [Compound 606] | – | – | – | Ki [4]: 0.298 µM
NC(=O)[C@@H]1CCCN1c1nc(-c2ccccc2)nc2[nH]ncc12 | 0.0668 µM | 97.4 nM | 0.0006 µM | Ki ([2]; Table 6, read-out: Ki − A3): 261 nM; PDE4 (Human) Inhibition at 10 μM (PDE4 (Human)): 34%
O[C@H]1CC[C@H](Nc2nc(-c3ccccc3)nc3[nH]cnc23)CC1 | 0.0968 µM | 69.3 nM | 0.0015 µM | Ki ([2]; Table 6, read-out: Ki − A3): 174 nM; PDE4 (Human) Inhibition at 10 μM (PDE4 (Human)): 79%
NC(=O)[C@@H]1CCCN1c1nc(-c2ccccc2)nc2[nH]cnc12 | 0.0191 µM | 63.1 nM | 0.0009 µM | –
O[C@H]1CC[C@H](Nc2nc(-c3ccccc3)nc3[nH]c(CN4CCOCC4)cc23)CC1 [Compound 1503] | – | – | – | Ki-A1 (Adenosine A1 Receptor Selective Compounds) ([4]; selectivity versus other three subtypes): * (at least 10 times more selective than other three subtypes.)
O=c1nc2[nH]c3ccccc3nc-2c(=O)[nH]1 [Alloxazine] | – | – | – | IC50 (hA3R): 8220 nM
NC(=O)[C@@H]1CCCN1c1nc(-c2ccccc2)nc2[nH]nnc12 | 5.54 µM | 5560 nM | 0.0813 µM | –
O[C@H]1CC[C@H](Nc2nc(-c3ccccc3)nc3[nH]ncc23)CC1 | 0.432 µM | 1460 nM | 0.0044 µM | Ki ([2]; Table 6, read-out: Ki − A3): 664 nM; PDE4 (Human) Inhibition at 10 μM (PDE4 (Human)): 89%
NC(=O)[C@H]1CCCN1c1nc(-c2ccccc2)nc2[nH]cnc12 | 0.0211 µM | 168 nM | 0.0123 µM | –
CC(=O)NCCNc1nc(-c2ccccc2)nc2[nH]cnc12 | 0.0248 µM | 22 nM | 0.0074 µM | –
CC(=O)NCCNc1nc(-c2ccccc2)nc2[nH]c(C)c(C)c12 [Compound 1300] | – | – | – | Ki [3]: 0.018 to 0.0486 µM
